Results: patent US20210087163A1, “PHENOXY THIOPHENE SULFONAMIDES AND OTHER COMPOUNDS FOR USE AS INHIBITORS OF BACTERIAL GLUCURONIDASE” (NORTH CAROLINA CENTRAL UNIVERSITY, priority 2010, published 2021)
Entries after “also recorded” stand apart in the source; their conditions may differ. Where two headings read alike, the source gives them in different places.

Assays:
E. coli GUS = E. coli GUS (Escherichia coli, UniProt P05804); test: GUS enzyme assay, manual version (purified E. coli GUS, 4MUG); type: biochemical
Experimental: The semi-automated GUS high throughput enzyme assay was performed as previously described and was used to screen the Prestwick Chemical Collection. The follow-up studies were performed manually in a similar manner with the exception of plate type and volumes, as briefly outlined here. Compound stock solutions were made in 100% DMSO. […] Final concentrations in the assembled assay were 50 mM HEPES. pH 7.4, 0.01% Triton X-100, 1% DMSO. […] The enzyme reaction was allowed to proceed for 20 minutes at 23° C., and was terminated by the addition of 40 μl of a 1M sodium carbonate solution. […] Fluorescence data, expressed in relative fluorescence units (RFU), were normalized to DMSO (100% activity) and “no enzyme” (0% activity) controls as maximum and minimum responses, respectively. The Bovine taurus GUS enzyme assay was performed in an identical manner except Bovine taurus GUS enzyme (1 nM) was used instead of bacterial GUS. The IC50 values and Hill slopes were calculated from concentration response data using GraphPad Prism software (GraphPad Software Inc., La Jolla, Calif.) employing either four-parameter or a three parameter (fixed bottom) curve fit.

[1] = target: T1, mammalian GUS purified from Bovine taurus liver (Bos taurus, UniProt A3KMY8); test: Bovine taurus GUS enzyme assay; type: biochemical
T1 sequence (A3KMY8 1-652): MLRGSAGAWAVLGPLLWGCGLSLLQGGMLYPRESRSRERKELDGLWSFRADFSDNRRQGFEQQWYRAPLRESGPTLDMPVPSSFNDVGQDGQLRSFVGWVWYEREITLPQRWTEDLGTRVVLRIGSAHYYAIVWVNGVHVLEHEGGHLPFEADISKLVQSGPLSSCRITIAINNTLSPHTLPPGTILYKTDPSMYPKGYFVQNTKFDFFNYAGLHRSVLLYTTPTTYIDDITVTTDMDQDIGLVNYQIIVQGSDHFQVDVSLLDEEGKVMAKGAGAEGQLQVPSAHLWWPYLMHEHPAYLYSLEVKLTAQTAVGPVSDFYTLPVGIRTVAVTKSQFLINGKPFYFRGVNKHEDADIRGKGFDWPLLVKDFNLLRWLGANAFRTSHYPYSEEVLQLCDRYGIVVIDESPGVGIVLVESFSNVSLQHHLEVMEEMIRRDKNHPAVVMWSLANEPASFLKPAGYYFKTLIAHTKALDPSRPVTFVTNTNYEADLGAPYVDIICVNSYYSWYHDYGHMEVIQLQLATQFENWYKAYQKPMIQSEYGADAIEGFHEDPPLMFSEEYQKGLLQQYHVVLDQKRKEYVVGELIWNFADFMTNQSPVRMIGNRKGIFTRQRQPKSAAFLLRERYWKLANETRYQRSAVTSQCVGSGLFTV

[2] = target: endogenous GUS activity in whole E. coli cells (Escherichia coli, UniProt P05804); test: GUS cell based assay (whole E. coli cells, 4MUG); conditions: for potency shift, less potent in the cell-based assay compared to the enzyme assay: less potent in cells
Experimental: An E. coli cell based assay was developed in order to assess the activity of these drugs against whole cells, instead of purified enzyme. We took advantage of the well-known specificity and sensitivity of the 4MUG substrate to detect GUS activity in E. coli cells. This assay mimicked the enzyme assay in format, with the GUS enzyme replaced by live log-phase E. coli cells and the assay incubated for a longer time (2 hr) to detect GUS activity in these un-modified cells.
Cultures of E col (DH5α) carrying the empty expression vector pCMV5 were grown over night in LB containing carbenicilin (50 μM) and then used to initiate fresh LB/carbenicillin cultures adjusted to an initial OD of 0.1. These cultures were allowed to reach an OD of 0.6 and then washed twice with 50 mM HEPES, pH 7.4 containing carbenicillin 50 μM, and concentrated by centrifugation to an OD of 1 for use in the assay. The GUS cell based assay was performed in an identical manner as the enzyme assay except the Triton X-100 was left out of the assay buffer, the E. coli cells replaced the enzyme and the reaction was allowed to proceed for 2 hrs at 37° C. The resulting data was analyzed as outlined for the enzyme assay.

monoamine oxidase = conditions: read-out: reported in vitro IC50 for inhibiting monoamine oxidase; rat brain homogenates; cited from earlier work
E. coli β-glucuronidase = E. coli β-glucuronidase (Escherichia coli, UniProt P05804); test: biochemical
MAO = conditions: read-out: reported IC50 for MAO; depending on subclass of MAO-A or MAO-B, or total activity; cited from earlier work
E. coli cells = test: microbe, parasite or virus in culture; conditions: Escherichia coli, 2 h
[3] = running text, read-out: IC50 in the E. coli cell-based assay
[4] = running text, read-out: average IC50 in the E. coli GUS enzyme assay

Chain of E. coli GUS (P05804 whole entry): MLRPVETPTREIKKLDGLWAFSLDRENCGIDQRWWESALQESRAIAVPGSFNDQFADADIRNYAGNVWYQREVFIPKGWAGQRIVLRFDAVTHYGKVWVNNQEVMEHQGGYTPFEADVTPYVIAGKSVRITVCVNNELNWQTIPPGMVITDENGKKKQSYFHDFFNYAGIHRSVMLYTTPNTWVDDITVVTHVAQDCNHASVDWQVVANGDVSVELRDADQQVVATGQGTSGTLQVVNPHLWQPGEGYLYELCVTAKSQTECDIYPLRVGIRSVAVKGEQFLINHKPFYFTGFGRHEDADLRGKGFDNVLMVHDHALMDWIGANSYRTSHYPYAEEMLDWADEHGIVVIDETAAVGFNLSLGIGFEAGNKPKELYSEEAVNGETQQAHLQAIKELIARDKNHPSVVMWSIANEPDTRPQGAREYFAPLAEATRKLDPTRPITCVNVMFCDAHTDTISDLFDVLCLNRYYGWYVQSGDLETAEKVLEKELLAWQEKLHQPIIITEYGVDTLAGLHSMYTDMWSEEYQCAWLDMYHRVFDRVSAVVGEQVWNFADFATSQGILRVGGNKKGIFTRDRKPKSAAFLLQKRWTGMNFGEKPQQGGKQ
Chain of endogenous GUS activity in whole E. coli cells (P05804 whole entry): as above
Chain of E. coli β-glucuronidase (P05804 whole entry): as above

In the case of `Cc1cc(C(=O)NNCc2ccccc2)no1` [Isocarboxazid, isocarboxazid], the IC50 (E. coli GUS; average of at least three determinations, read-out: E. coli GUS Enzyme Assay IC50 ± SD) is reported as 128 ± 56 nM, the “activity against purified mammalian GUS, in words” value [1] is reported as “no significant activity; also recorded: do not inhibit” and the IC50 [2, 3] is reported as 336 ± 120 nM.

In the case of `O=C(CCNNC(=O)c1ccncc1)NCc1ccccc1` [Nialamide, nialamide], the IC50 (E. coli GUS; [4]) is reported as 71 nM, the “activity against purified mammalian GUS, in words” value [1] is reported as “no significant activity; also recorded: do not inhibit” and the IC50 ([1]; average of at least three determinations, read-out: B. taurus GUS Enzyme Assay IC50 ± SD) is reported as 74800 nM. For the same compound, the IC50 ([1]; running text, read-out: IC50 against purified mammalian GUS) was roughly 75000 nM, the “potency shift, more potent in the cell-based assay compared to the E. coli GUS enzyme assay” value ([2]; more potent in cells) was 4 fold and the IC50 [2, 3] was 17 nM. The IC50 (monoamine oxidase) was 2600 to 13000 nM.

With `NNCCc1ccccc1` [Phenelzine, phenelzine] the “inhibition in the Prestwick collection screen” value (E. coli β-glucuronidase; 10 µM) was greater than 50%, the inhibition at 10 µM (E. coli β-glucuronidase; read-out: inhibition in the Prestwick collection screen) was 62% and the IC50 (E. coli GUS; running text, listed as phenelzine, read-out: average IC50 in the E. coli GUS enzyme assay) was 2280 nM. The IC50 (E. coli GUS; [4]) was 2200 nM, the IC50 ([2]; average of at least three determinations, 2 hrs at 37° C., read-out: E. coli Cell-Based Assay IC50 ± SD) was 7120 nM and the “potency shift, less potent in the cell-based assay compared to the enzyme assay” value (shortened to “potency shift, less potent”) [2] was 2.6 fold. For the same compound, the IC50 (MAO) was 70 to 900 nM.

With `NC[C@H]1O[C@H](O[C@H]2[C@H](O)[C@@H](O[C@H]3O[C@H](CO)[C@@H](O)[C@H](N)[C@H]3O)[C@H](N)C[C@@H]2N)[C@H](O)[C@@H](O)[C@@H]1O` [Kanamycin] the inhibition at 50 µg/mL (E. coli cells; read-out: reduction of activity in the viability assay) was greater than 90%.

Work on `CC1(C)Cc2cccc(Oc3ccc(S(=O)(=O)NCc4cccc5ccccc45)s3)c2O1` [BRITE-354502] yielded an IC50 (E. coli β-glucuronidase; read-out: IC50, β-Glucuronidase Inhibitory activity of phenoxythiophene sulfonamides) of 965000 nM.

With `OC(c1cc(C(F)(F)F)nc2c(C(F)(F)F)cccc12)C1CCCCN1` (stereo not drawn) [Mefloquine, mefloquine] the IC50 (E. coli GUS; listed as mefloquine hydrochloride, read-out: average IC50 in the E. coli GUS enzyme assay) was 1210 nM, the “potency shift, less potent” value [2] was “over 4.9 fold” and the “potency shift, less potent” value ([2]; listed as mefloquine) was 5 fold. It also gave an IC50 ([2]; read-out: IC50 in the E. coli cell-based assay) of 6000 nM and a viability at 10 µM (E. coli cells; read-out: viability of E. coli) of 100%.
